These results are taken from patent publication US11236069B2, “KIF18A inhibitors” (AMGEN INC., priority 2018, dated 2022).

SMILES strings stand for the structures.

Sequence of Recombinant human KIF18A (1-467 His-tagged) protein (Q8NI77 1-467): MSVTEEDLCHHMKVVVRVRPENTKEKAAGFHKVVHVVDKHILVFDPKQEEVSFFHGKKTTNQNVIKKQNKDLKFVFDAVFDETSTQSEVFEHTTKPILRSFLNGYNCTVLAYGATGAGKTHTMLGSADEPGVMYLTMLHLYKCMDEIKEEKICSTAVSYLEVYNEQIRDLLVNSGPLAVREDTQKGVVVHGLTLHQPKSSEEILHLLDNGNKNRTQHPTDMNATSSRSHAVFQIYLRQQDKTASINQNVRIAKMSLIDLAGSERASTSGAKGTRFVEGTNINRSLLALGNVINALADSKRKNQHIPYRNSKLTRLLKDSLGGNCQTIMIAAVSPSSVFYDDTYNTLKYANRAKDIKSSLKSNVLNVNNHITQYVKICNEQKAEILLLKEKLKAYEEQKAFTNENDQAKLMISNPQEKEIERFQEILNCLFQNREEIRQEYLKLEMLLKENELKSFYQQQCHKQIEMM
Sequence of Recombinant human KIF18A (1-467 His-tagged) protein (P02550 whole entry partner): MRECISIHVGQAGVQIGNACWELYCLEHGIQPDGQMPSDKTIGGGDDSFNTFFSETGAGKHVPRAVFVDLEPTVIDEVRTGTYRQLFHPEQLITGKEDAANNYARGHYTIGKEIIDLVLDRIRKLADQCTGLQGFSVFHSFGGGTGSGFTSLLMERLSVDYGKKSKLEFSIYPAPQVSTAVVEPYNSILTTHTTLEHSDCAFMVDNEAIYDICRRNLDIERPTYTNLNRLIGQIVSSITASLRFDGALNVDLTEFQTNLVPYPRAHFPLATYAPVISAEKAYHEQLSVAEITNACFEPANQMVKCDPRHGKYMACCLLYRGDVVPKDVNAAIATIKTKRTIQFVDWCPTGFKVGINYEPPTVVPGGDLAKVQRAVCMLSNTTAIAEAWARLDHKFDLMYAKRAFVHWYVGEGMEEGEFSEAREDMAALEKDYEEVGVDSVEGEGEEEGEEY
Sequence of Recombinant human KIF18A (1-467 His-tagged) protein (P02554 whole entry partner): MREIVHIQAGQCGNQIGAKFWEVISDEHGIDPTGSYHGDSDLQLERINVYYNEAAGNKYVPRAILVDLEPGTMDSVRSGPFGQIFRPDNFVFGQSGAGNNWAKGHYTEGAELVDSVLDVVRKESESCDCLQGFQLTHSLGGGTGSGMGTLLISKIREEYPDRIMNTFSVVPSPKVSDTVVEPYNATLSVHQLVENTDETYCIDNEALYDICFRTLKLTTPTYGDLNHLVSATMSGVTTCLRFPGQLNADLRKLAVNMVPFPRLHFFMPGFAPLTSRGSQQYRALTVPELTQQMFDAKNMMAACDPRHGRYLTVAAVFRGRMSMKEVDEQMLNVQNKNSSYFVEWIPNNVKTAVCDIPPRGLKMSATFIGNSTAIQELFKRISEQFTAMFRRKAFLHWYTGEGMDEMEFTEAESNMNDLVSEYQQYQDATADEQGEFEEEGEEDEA

This test has as its target Recombinant human KIF18A (1-467 His-tagged) protein (Homo sapiens (Human), UniProt Q8NI77). As to the kind of experiment: KIF18A Enzyme Assay: microtubule-stimulated ATPase activity (ADP-Glo). The settings on record: read-out: KIF18A ATPase IC50; 30 nM KIF18A, 30 μg/mL pig microtubules, ATP at Km 75 μM, ADP-Glo luminescence.
From the text: KIF18A Enzyme Assay: Microtubule-stimulated ATPase activity assay is used to measure KIF18A enzyme activity after treatment with compound. Compounds were 2-fold serially diluted in DMSO (Sigma Inc) over 22-point concentration range. […] The assay measures ADP formed from the ATPase reaction.
Turning to `Cc1cc(NC(=O)c2ccc(NS(=O)(=O)CCO)cc2N2CCC3(CC2)CC3)nc(N2CCC(C)(O)CC2)n1` [Example 11-38, N-(2-(4-Hydroxy-4-methylpiperidin-1-yl)-6-methylpyrimidin-4-yl)-4-((2-hydroxyethyl)sulfonamido)-2-(6-azaspiro[2.5]octan-6-yl)benzamide], the IC50 was 65 nM.
As for `Cc1cc(NC(=O)c2ccc(NS(=O)(=O)CCO)cc2N2CCC3(CC2)CC3)nc(N2CCCC(F)(F)C2)n1` [Example 11-39, N-(2-(3,3-Difluoropiperidin-1-yl)-6-methylpyrimidin-4-yl)-4-((2-hydroxyethyl)sulfonamido)-2-(6-azaspiro[2.5]octan-6-yl)benzamide], the IC50 is 45 nM.
Next, `Cc1cc(NC(=O)c2ccc(NS(=O)(=O)CCO)cc2N2CCC3(CCC3)CC2)nc(N2CCC(F)(F)CC2)n1` [Example 11-40, N-(2-(4,4-Difluoropiperidin-1-yl)-6-methylpyrimidin-4-yl)-4-((2-hydroxyethyl)sulfonamido)-2-(7-azaspiro[3.5]nonan-7-yl)benzamide]: 109 nM; `Cc1cc(NC(=O)c2ccc(NS(=O)(=O)CCO)cc2N2CCC(C)(C)CC2)nc(N2CCC(F)(F)CC2)n1` [Example 11-41, N-(2-(4,4-Difluoropiperidin-1-yl)-6-methylpyrimidin-4-yl)-2-(4,4-dimethylpiperidin-1-yl)-4-((2-hydroxyethyl)sulfonamido)benzamide]: 127 nM.
As to `Cc1cc(NC(=O)c2ccc(NS(=O)(=O)CCO)cc2N2CCC3(CC2)CC3)nc(N2CCC3C[C@]3(O)C2)n1` (stereo partly drawn) [Example 11-42, N-(2-((1R)-1-Hydroxy-3-azabicyclo[4.1.0]heptan-3-yl)-6-methylpyrimidin-4-yl)-4-((2-hydroxyethyl)sulfonamido)-2-(6-azaspiro[2.5]octan-6-yl)benzamide], the IC50 turned out to be 34 nM.
For `Cc1cc(NC(=O)c2ccc(NS(=O)(=O)CCO)cc2N2CCC3(CC2)CC3)nc(N2CC[C@H]3C[C@H]3C2)n1` [Example 11-43, N-(2-((1R,6R)-3-Azabicyclo[4.1.0]heptan-3-yl)-6-methylpyrimidin-4-yl)-4-((2-hydroxyethyl)sulfonamido)-2-(6-azaspiro[2.5]octan-6-yl)benzamide], the IC50 stood at 35 nM.
Regarding `Cc1cc(NC(=O)c2ccc(NS(=O)(=O)CCO)cc2N2CCC3(CC2)CC3)nc(N2CCC[C@@H]3C[C@@H]32)n1` [Example 11-44, N-(2-((1S,6R)-2-Azabicyclo[4.1.0]heptan-2-yl)-6-methylpyrimidin-4-yl)-4-((2-hydroxyethyl)sulfonamido)-2-(6-azaspiro[2.5]octan-6-yl)benzamide], the IC50 was found to be 33 nM.
In the case of `Cc1cc(NC(=O)c2ccc(NS(=O)(=O)CCO)cc2N2CCC3(CC2)CC3)nc(N2CCO[C@@H](C)C2)n1` [Example 11-45, (S)-4-((2-Hydroxyethyl)sulfonamido)-N-(6-methyl-2-(2-methylmorpholino)pyrimidin-4-yl)-2-(6-azaspiro[2.5]octan-6-yl)benzamide], the IC50 was 35 nM.
Turning to `Cc1cc(NC(=O)c2ccc(NS(=O)(=O)CCO)cc2N2CCC3(CC2)CC3)nc(N2CCOC(C)(C)C2)n1` [Example 11-46, N-(2-(2,2-Dimethylmorpholino)-6-methylpyrimidin-4-yl)-4-((2-hydroxyethyl)sulfonamido)-2-(6-azaspiro[2.5]octan-6-yl)benzamide], the IC50 stood at 150 nM.
Consider `Cc1cc(NC(=O)c2ccc(NS(=O)(=O)CCO)cc2N2CCC3(CC2)CC3)nc(N2CCOC3(CC3)C2)n1` [Example 11-47, 4-((2-Hydroxyethyl)sulfonamido)-N-(6-methyl-2-(4-oxa-7-azaspiro[2.5]octan-7-yl)pyrimidin-4-yl)-2-(6-azaspiro[2.5]octan-6-yl)benzamide], for which the IC50 stood at 95 nM.
Consider `Cc1cc(NC(=O)c2ccc(NS(=O)(=O)CCO)cc2N2CCC3(CC2)CC3)nc(N2[C@H](C)COC[C@@H]2C)n1` [Example 11-48, N-(2-((3S,5R)-3,5-Dimethylmorpholino)-6-methylpyrimidin-4-yl)-4-((2-hydroxyethyl)sulfonamido)-2-(6-azaspiro[2.5]octan-6-yl)benzamide], for which the concentration for half-maximal inhibition (IC50) was determined as 95 nM.
As for `Cc1cc(NC(=O)c2ccc(NS(=O)(=O)CCO)cc2N2CCC3(CC2)CC3)nc(N2[C@@H](C)COC[C@@H]2C)n1` [Example 11-49, N-(2-((3S,5S)-3,5-Dimethylmorpholino)-6-methylpyrimidin-4-yl)-4-((2-hydroxyethyl)sulfonamido)-2-(6-azaspiro[2.5]octan-6-yl)benzamide], the IC50 is 245 nM.
As to `Cc1cc(NC(=O)c2ccc(NS(=O)(=O)CCO)cc2N2CCC3(CC2)CC3)nc(N2[C@H](C)COC[C@H]2C)n1` [Example 11-50, N-(2-((3R,5R)-3,5-Dimethylmorpholino)-6-methylpyrimidin-4-yl)-4-((2-hydroxyethyl)sulfonamido)-2-(6-azaspiro[2.5]octan-6-yl)benzamide], the IC50 amounted to 187 nM.
With `Cc1cc(NC(=O)c2ccc(NS(=O)(=O)CCO)cc2N2CCC3(CC2)CC3)nc(N2CCC(F)CC2)n1` [Example 11-51, N-(2-(4-Fluoropiperidin-1-yl)-6-methylpyrimidin-4-yl)-4-((2-hydroxyethyl)sulfonamido)-2-(6-azaspiro[2.5]octan-6-yl)benzamide], the IC50 is 20 nM.
For `Cc1cc(NC(=O)c2ccc(NS(=O)(=O)CCO)cc2N2CCC3(CC2)CC3)nc(N2CCC(C)(F)CC2)n1` [Example 11-52, N-(2-(4-Fluoro-4-methylpiperidin-1-yl)-6-methylpyrimidin-4-yl)-4-((2-hydroxyethyl)sulfonamido)-2-(6-azaspiro[2.5]octan-6-yl)benzamide], the IC50 is 63 nM.
In the case of `Cc1cc(NC(=O)c2ccc(NS(=O)(=O)CCO)cc2N2CCC3(CC2)CC3)nc(N2CCC[C@H](O)C2)n1` [Example 11-53, (S)-4-((2-Hydroxyethyl)sulfonamido)-N-(2-(3-hydroxypiperidin-1-yl)-6-methylpyrimidin-4-yl)-2-(6-azaspiro[2.5]octan-6-yl)benzamide], the IC50 was 105 nM.
Turning to `Cc1cc(NC(=O)c2ccc(NS(=O)(=O)CCO)cc2N2CCC3(CC2)CC3)nc(N2CCC[C@@H](O)C2)n1` [Example 11-54, (R)-4-((2-Hydroxyethyl)sulfonamido)-N-(2-(3-hydroxypiperidin-1-yl)-6-methylpyrimidin-4-yl)-2-(6-azaspiro[2.5]octan-6-yl)benzamide], the IC50 came to 74 nM.
As for `Cc1cc(NC(=O)c2ccc(NS(=O)(=O)CCO)cc2N2CCC3(CC2)CC3)nc(N2CCC[C@@](C)(F)C2)n1` [Example 11-55, (R)-N-(2-(3-Fluoro-3-methylpiperidin-1-yl)-6-methylpyrimidin-4-yl)-4-((2-hydroxyethyl)sulfonamido)-2-(6-azaspiro[2.5]octan-6-yl)benzamide], the IC50 came out at 41 nM.
Next, `O=C(Nc1ccnc(N2CCC(F)CC2)n1)c1ccc(NS(=O)(=O)CCO)cc1N1CCC2(CC1)CC2` [Example 11-56, N-(2-(4-Fluoropiperidin-1-yl)pyrimidin-4-yl)-4-((2-hydroxyethyl)sulfonamido)-2-(6-azaspiro[2.5]octan-6-yl)benzamide]: 22 nM; `O=C(Nc1ccnc(N2CCC(F)(F)CC2)n1)c1ccc(NS(=O)(=O)CCO)cc1N1CCC2(CC1)CC2` [Example 11-57, N-(2-(4,4-Difluoropiperidin-1-yl)pyrimidin-4-yl)-4-((2-hydroxyethyl)sulfonamido)-2-(6-azaspiro[2.5]octan-6-yl)benzamide]: 22 nM; `Cc1cc(NC(=O)c2c(F)cc(NS(=O)(=O)CCO)cc2N2CCC3(CC2)CC3)nc(N2CCC(F)(F)CC2)n1` [Example 11-58, N-(2-(4,4-Difluoropiperidin-1-yl)-6-methylpyrimidin-4-yl)-2-fluoro-4-((2-hydroxyethyl)sulfonamido)-6-(6-azaspiro[2.5]octan-6-yl)benzamide]: 71 nM.
The value for `O=C(Nc1ccnc(OCCC(F)(F)F)c1)c1ccc(NS(=O)(=O)CCO)cc1N1CCC2(CC1)CC2` [Example 11-59, 4-((2-Hydroxyethyl)sulfonamido)-2-(6-azaspiro[2.5]octan-6-yl)-N-(2-(3,3,3-trifluoropropoxy)pyridin-4-yl)benzamide] was 58 nM; that for `Cc1cc(NC(=O)c2ccc(NS(=O)(=O)CCO)cc2N2CCC3(CC2)CC3)cc(OCCC(F)(F)F)n1` [Example 11-60, 4-((2-Hydroxyethyl)sulfonamido)-N-(2-methyl-6-(3,3,3-trifluoropropoxy)pyridin-4-yl)-2(6-azaspiro[2.5]octan-6-yl)benzamide] was 84 nM; that for `Cc1cc(NC(=O)c2ccc(NS(=O)(=O)CCO)cc2N2CCC3(CC2)CC3)nc(OCCC(F)(F)F)n1` [Example 11-61, 4-((2-Hydroxyethyl)sulfonamido)-N-(6-methyl-2-(3,3,3-trifluoropropoxy)pyrimidin-4-yl)-2-(6-azaspiro[2.5]octan-6-yl)benzamide] was 70 nM.
With `Cc1cc(NC(=O)c2ccc(NS(=O)(=O)CCO)cc2N2CCC3(CC2)CC3)nc(NC(C)(C)CO)n1` [Example 11-62, N-(2-((1-Hydroxy-2-methylpropan-2-yl)amino)-6-methylpyrimidin-4-yl)-4-((2-hydroxyethyl)sulfonamido)-2-(6-azaspiro[2.5]octan-6-yl)benzamide], the IC50 was determined as 18 nM.
Next, `O=C(Nc1ccnc(N2CCC(F)(F)CC2)c1F)c1ccc(NS(=O)(=O)CCO)cc1N1CCC2(CC1)CC2` [Example 11-63, N-(2-(4,4-Difluoropiperidin-1-yl)-3-fluoropyridin-4-yl)-4((2-hydroxyethyl)sulfonamido)-2-(6-azaspiro[2.5]octan-6-yl)benzamide]: 22 nM.
The value for `Cc1cc(NC(=O)c2ccc(NS(=O)(=O)CCO)cc2N2CCC3(CC2)CC3)c(F)c(N2CCC(F)(F)CC2)n1` [Example 11-64, N-(2-(4,4-Difluoropiperidin-1-yl)-3-fluoro-6-methylpyridin-4-yl)-4-((2-hydroxyethyl)sulfonamido)-2-(6-azaspiro[2.5]octan-6-yl)benzamide] was 54 nM; that for `C[C@@H]1CN(c2cc(NC(=O)c3ccc(NS(=O)(=O)CCO)cc3N3CCC4(CC3)CC4)ccn2)CCO1` [Example 11-65] was 151 nM.
